Assay results reported in US11083199B2, “Heterocycle derivatives as pesticides” (Bayer Aktiengesellschaft, priority 2017, dated 2021).

Tests used:
Type in all cases: in vivo
Phaedon cochleariae = Phaedon cochleariae spray test; conditions: 168 h, application rate 100 g/ha, larvae, after 7 days, read-out: efficacy
Outline: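 Chinese cabbage leaf discs sprayed with compound formulated in solvent and water containing 1000 ppm emulsifier. Once dry, discs were populated with mustard beetle larvae. Percent kill scored after 7 days, 100% meaning all larvae dead and 0% none.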

Ctenocephalides felis [1] = test: Ctenocephalides felis oral test; conditions: 48 h, application rate 100 ppm in citrated cattle blood, kill after 2 days, read-out: efficacy
Procedure: Solvent: dimethyl sulfoxide To produce a suitable active ingredient formulation, 10 mg of active ingredient are mixed with 0.5 ml of dimethyl sulfoxide. Dilution with citrated cattle blood gives the desired concentration. About 20 unfed adult cat fleas (Ctenocephalides felis) are placed into a chamber which is closed at the top and bottom with gauze. A metal cylinder whose bottom end is closed with parafilm is placed onto the chamber. The cylinder contains the blood/active ingredient formulation, which can be imbibed by the fleas through the parafilm membrane. After 2 days, the kill in % is determined. 100% means that all of the fleas have been killed; 0% means that none of the fleas have been killed.

Myzus persicae [2] = test: Myzus persicae oral test; conditions: 120 h, application rate 4 ppm, after 5 days, read-out: efficacy
Outline: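 Compound formulation diluted with IPL41 insect medium (33%+15% sugar) and sealed under parafilm; mixed-population aphids feed through the membrane from a second plate. Mortality scored after 5 days as % efficacy (100% = all aphids killed, 0% = none).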

Ctenocephalides felis [3] = test: Ctenocephalides felis in vitro contact test with adult cat fleas; conditions: application rate 5 μg/cm^2 (=500 g/ha), adult cat fleas dead or moribund after 48 h, read-out: efficacy
Procedure: For the coating of the test tubes, 9 mg of active ingredient are first dissolved in 1 ml of acetone p.a. and then diluted to the desired concentration with acetone p.a. 250 μl of the solution are distributed homogeneously on the inner walls and the base of a 25 ml glass tube by turning and rocking on an orbital shaker (rocking rotation at 30 rpm for 2 h). With 900 ppm of active ingredient solution and internal surface area 44.7 cm^2, given homogeneous distribution, an area-based dose of 5 μg/cm^2 is achieved. After the solvent has evaporated off, the tubes are populated with 5-10 adult cat fleas (Ctenocephalides felis), sealed with a perforated plastic lid and incubated in a horizontal position at room temperature and ambient humidity. After 48 h, efficacy is determined. To this end, the tubes are stood upright and the fleas are knocked to the base of the tube. Fleas which remain motionless at the base or move in an uncoordinated manner are considered to be dead or moribund. […] 100% efficacy means that all the fleas were dead or moribund. 0% efficacy means that no fleas were harmed.

Lucilia cuprina = Lucilia cuprina test; conditions: 48 h, application rate 100 ppm, L1 larvae, kill after 2 days, read-out: efficacy
Procedure: Solvent: dimethyl sulfoxide To produce a suitable active ingredient formulation, 10 mg of active ingredient are mixed with 0.5 ml of dimethyl sulfoxide, and the concentrate is diluted with water to the desired concentration. About 20 L1 larvae of the Australian sheep blowfly (Lucilia cuprina) are transferred into a test vessel containing minced horsemeat and the active ingredient formulation of the desired concentration. After 2 days, the kill in % is determined. 100% means that all the larvae have been killed; 0% means that no larvae have been killed.

Myzus persicae [4] = test: Myzus persicae spray test; conditions: foliar, 120 h, application rate 100 g/ha, Chinese cabbage leaf discs, after 5 days, read-out: efficacy
Outline: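 Chinese cabbage leaf discs infested with all aphid stages sprayed with compound formulated in emulsifier-containing water (1000 ppm emulsifier). Efficacy (% aphids killed; 100% = all killed) determined after 5 days.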

Musca domestica = Musca domestica test; conditions: application rate 100 ppm; adult houseflies, kill after 2 days
Procedure: Solvent: dimethyl sulfoxide To produce a suitable active ingredient formulation, 10 mg of active ingredient are mixed with 0.5 ml of dimethyl sulfoxide, and the concentrate is diluted with water to the desired concentration. Vessels containing a sponge treated with sugar solution and the desired concentration of active ingredient formulation are populated with 10 adult houseflies (Musca domestica). After 2 days, the kill in % is determined. 100% means that all of the flies have been killed; 0% means that none of the flies have been killed.

Spodoptera frugiperda = Spodoptera frugiperda spray test; conditions: foliar, 168 h, application rate 100 g/ha, maize leaf discs, caterpillars, after 7 days, read-out: efficacy
Outline: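 Maize leaf discs sprayed with compound formulated in solvent plus water with 1000 ppm emulsifier, dried, then infested with fall armyworm caterpillars. Mortality scored after 7 days as % efficacy (100% = all caterpillars killed, 0% = none).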

Boophilus microplus = Boophilus microplus injection test; conditions: application rate 20 μg/animal, injected; laying of fertile eggs assessed after 7 days
Procedure: Solvent: dimethyl sulfoxide To produce a suitable active ingredient formulation, 10 mg of active ingredient are mixed with 0.5 ml of solvent and the concentrate is diluted to the desired concentration with solvent. 1 μl of the active ingredient solution is injected into the abdomen of 5 engorged adult female cattle ticks (Boophilus microplus). The animals are transferred into dishes and kept in a climate-controlled room. Efficacy is assessed after 7 days by laying of fertile eggs. Eggs which are not visibly fertile are stored in a climate-controlled cabinet until the larvae hatch after about 42 days. An efficacy of 100% means that none of the ticks has laid any fertile eggs; 0% means that all the eggs are fertile.

Tetranychus urticae = Tetranychus urticae spray test, OP-resistant; conditions: foliar, 144 h, bean leaf discs, after 6 days, read-out: efficacy
Procedure: [table] To produce a suitable active ingredient formulation, 1 part by weight of active ingredient is dissolved with the specified parts by weight of solvent and made up to the desired concentration with water containing an emulsifier concentration of 1000 ppm. To produce further test concentrations, the formulation is diluted with emulsifier-containing water. Discs of bean leaves (Phaseolus vulgaris) infested with all stages of the greenhouse red spider mite (Tetranychus urticae) are sprayed with an active ingredient formulation of the desired concentration. After 6 days, the efficacy in % is determined. 100% means that all the spider mites have been killed; 0% means that no spider mites have been killed.

| SMILES | pest or weed control at 100 g/ha (Phaedon cochleariae) | pest or weed control at 100 ppm (Ctenocephalides felis [1]) | pest or weed control at 4 ppm (Myzus persicae [2]) | pest or weed control at 5 µg/cm2, 500 g/ha (Ctenocephalides felis [3]) | pest or weed control at 100 ppm (Lucilia cuprina) | pest or weed control at 100 g/ha (Myzus persicae [4]) | efficacy (Musca domestica) | pest or weed control at 100 g/ha (Spodoptera frugiperda) | efficacy (Boophilus microplus) | pest or weed control at 20 g/ha (Tetranychus urticae; application rate 20 g/ha) | pest or weed control at 100 g/ha (Tetranychus urticae; application rate 100 g/ha) |
| --- | --- | --- | --- | --- | --- | --- | --- | --- | --- | --- | --- |
| CCS(=O)(=O)c1c(-c2nc3cc(C(F)(F)F)ncc3n2C)nc(-c2ccc(F)nc2)n1C [Example I-019, 2-[5-(Ethylsulfonyl)-2-(6-fluoropyridin-3-yl)-1-methyl-1H-imidazol-4-yl]-3-methyl-6-(trifluoromethyl)-3H-imidazo[4,5-c]pyridine] | 100% | 95% | 100% | 100% | 100% | 100% | 100% | 100% | – | – | – |
| CCS(=O)(=O)c1c(-c2nc3cc(C(F)(F)F)ncc3n2C)nc(-c2cncc(F)c2)n1C [Example I-018] | 100% | 100% | 100% | 100% | 100% | 100% | 80% | 83% | – | – | – |
| CCNC(=O)c1nc(-c2nc3cc(C(F)(F)F)ncc3n2C)c(S(=O)(=O)CC)n1C [Example I-041] | 100% | – | 100% | – | – | 90% | – | – | 100% | – | – |
| CCS(=O)(=O)c1c(-c2nc3cc(C(F)(F)F)ncc3n2C)nc(/C=C/C2CC2)n1C [Example I-007, 2-{2-[(E)-2-Cyclopropylvinyl]-5-(ethylsulfonyl)-1-methyl-1H-imidazol-4-yl}-3-methyl-6-(trifluoromethyl)-3H-imidazo[4,5-c]pyridine] | 100% | 95% | 100% | 100% | 100% | 90% | – | 100% | – | – | – |
| CCS(=O)(=O)c1c(-c2nc3cc(C(F)(F)F)ncc3n2C)nc(-c2ccc(Cl)cc2)n1C [Example I-005] | 100% | 100% | 100% | 100% | 100% | 90% | 100% | 100% | – | – | – |
| CCn1c(-c2ccccc2)nc(-c2nc3cc(C(F)(F)F)ncc3n2C)c1S(=O)(=O)CC [Example I-009] | – | 95% | 100% | 100% | 100% | 90% | 80% | – | – | – | – |
| CCS(=O)(=O)c1c(-c2nc3cc(C(F)(F)F)ncc3n2C)nc(-c2cc(Cl)cs2)n1C [Example I-033] | – | 100% | 100% | – | 100% | 90% | 90% | 100% | – | – | – |
| CCn1c(Cl)nc(-c2nc3cc(C(F)(F)F)ncc3n2C)c1S(=O)(=O)CC [Example I-011] | 100% | 100% | 100% | 100% | 100% | 100% | – | 100% | – | – | – |
| CCS(=O)(=O)c1c(-c2nc3cc(C(F)(F)F)ncc3n2C)nc(-c2cccnc2)n1C [Example I-016] | – | – | 100% | – | 100% | 100% | – | – | 90% | – | – |
| CCS(=O)(=O)c1c(-c2nc3cc(C(F)(F)F)ncc3n2C)nc(-c2ccc(Cl)cn2)n1C [Example I-015] | 100% | 100% | 100% | 100% | 100% | 90% | – | 100% | – | – | – |
| CCS(=O)(=O)c1c(-c2nc3cc(C(F)(F)F)ncc3n2C)nc(-c2cccc(Cl)n2)n1C [Example I-014, 2-[2-(6-Chloropyridin-2-yl)-5-(ethylsulfonyl)-1-methyl-1H-imidazol-4-yl]-3-methyl-6-(trifluoromethyl)-3H-imidazo[4,5-c]pyridine] | 100% | 100% | 100% | 100% | 100% | 100% | 80% | 100% | – | – | – |
| CCS(=O)(=O)c1c(-c2nc3cc(C(F)(F)F)ncc3n2C)nc(-c2ccn[nH]2)n1C [Example I-049] | 100% | 80% | 100% | – | 100% | 90% | 80% | – | – | 90% | 90% |
